Reference: ChEMBL document CHEMBL2074021, “Nuclear receptor response elements mediate induction of intestinal MDR1 by rifampin” (J Biol Chem, 2001)

Target: ATP-dependent translocase ABCB1 (Homo sapiens, UniProt P08183)
Assay: TP_TRANSPORTER: Northern blot from LS174T cell
Assay type: functional, cell-based

Sequence of ATP-dependent translocase ABCB1 (P08183 whole entry): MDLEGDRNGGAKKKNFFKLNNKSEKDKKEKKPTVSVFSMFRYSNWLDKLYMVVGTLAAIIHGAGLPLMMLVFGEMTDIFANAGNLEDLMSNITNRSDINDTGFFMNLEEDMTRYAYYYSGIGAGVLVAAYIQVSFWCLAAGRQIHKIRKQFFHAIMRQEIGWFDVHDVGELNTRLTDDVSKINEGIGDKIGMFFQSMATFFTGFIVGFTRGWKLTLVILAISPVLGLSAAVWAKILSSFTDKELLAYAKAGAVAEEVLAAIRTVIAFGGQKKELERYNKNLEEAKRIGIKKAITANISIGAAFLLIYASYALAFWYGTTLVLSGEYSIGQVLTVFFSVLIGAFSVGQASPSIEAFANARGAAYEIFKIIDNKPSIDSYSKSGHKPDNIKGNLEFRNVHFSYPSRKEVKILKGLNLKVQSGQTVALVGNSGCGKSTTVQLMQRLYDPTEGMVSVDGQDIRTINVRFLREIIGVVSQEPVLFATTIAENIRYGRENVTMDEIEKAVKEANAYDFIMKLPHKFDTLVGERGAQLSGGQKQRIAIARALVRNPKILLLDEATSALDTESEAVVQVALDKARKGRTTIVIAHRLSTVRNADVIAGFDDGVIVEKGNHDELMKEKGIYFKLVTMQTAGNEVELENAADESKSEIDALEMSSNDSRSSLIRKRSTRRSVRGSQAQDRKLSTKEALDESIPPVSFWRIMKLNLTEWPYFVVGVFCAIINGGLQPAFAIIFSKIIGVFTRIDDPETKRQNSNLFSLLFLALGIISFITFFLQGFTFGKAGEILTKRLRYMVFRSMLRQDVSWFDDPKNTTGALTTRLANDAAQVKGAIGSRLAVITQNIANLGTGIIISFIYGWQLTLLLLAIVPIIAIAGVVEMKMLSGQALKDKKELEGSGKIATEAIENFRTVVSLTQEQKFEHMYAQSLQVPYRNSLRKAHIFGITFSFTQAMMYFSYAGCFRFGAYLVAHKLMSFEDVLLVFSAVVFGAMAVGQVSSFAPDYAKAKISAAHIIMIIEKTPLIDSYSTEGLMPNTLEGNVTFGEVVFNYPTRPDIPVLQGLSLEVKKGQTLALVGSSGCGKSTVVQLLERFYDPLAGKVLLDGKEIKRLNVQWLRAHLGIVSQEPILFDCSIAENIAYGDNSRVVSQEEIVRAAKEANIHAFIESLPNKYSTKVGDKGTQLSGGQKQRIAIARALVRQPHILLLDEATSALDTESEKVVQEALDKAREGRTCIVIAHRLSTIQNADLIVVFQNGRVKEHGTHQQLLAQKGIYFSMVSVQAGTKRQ

Activity	SMILES
inducer [+]	NC(=O)N1c2ccccc2C=Cc2ccccc21 [CARBAMAZEPINE]
inducer [+]	Clc1ccccc1C(c1ccccc1)(c1ccccc1)n1ccnc1 [CLOTRIMAZOLE]
inducer [+]	C[C@]12C[C@H](O)[C@H]3[C@@H](CCC4=CC(=O)CC[C@@]43C)[C@@H]1CC[C@@H]2C(=O)CO [CORTICOSTERONE]
inducer [+]	C[C@@H]1C[C@H]2[C@@H]3CCC4=CC(=O)C=C[C@]4(C)[C@@]3(F)[C@@H](O)C[C@]2(C)[C@@]1(O)C(=O)CO [DEXAMETHASONE]
inducer [+]	CC#C[C@]1(O)CC[C@H]2[C@@H]3CCC4=CC(=O)CCC4=C3[C@@H](c3ccc(N(C)C)cc3)C[C@@]21C [MIFEPRISTONE]
inducer [+]	COC(=O)[C@H]1[C@H]2C[C@@H]3c4[nH]c5cc(OC)ccc5c4CCN3C[C@H]2C[C@@H](OC(=O)c2cc(OC)c(OC)c(OC)c2)[C@@H]1OC [RESERPINE]
inducer [+]	CO[C@H]1/C=C/O[C@@]2(C)Oc3c(C)c(O)c4c(O)c(c(/C=N/N5CCN(C)CC5)c(O)c4c3C2=O)NC(=O)/C(C)=C\C=C\[C@H](C)[C@H](O)[C@@H](C)[C@@H](O)[C@@H](C)[C@H](OC(C)=O)[C@@H]1C [RIFAMPIN]

SMILES	Activity
CC(=O)[C@H]1CC[C@H]2[C@@H]3CC[C@@H]4CC(=O)CC[C@]4(C)[C@H]3CC[C@]12C	inducer [+]
COC(=O)C1=C(C)NC(C)=C(C(=O)OC)C1c1ccccc1[N+](=O)[O-] [NIFEDIPINE]	inducer [+]
CC(=O)[C@H]1[C@H](C#N)C[C@H]2[C@@H]3CC=C4C[C@@H](O)CC[C@]4(C)[C@H]3CC[C@@]21C [PREGNENOLONE CARBONITRILE]	inducer [+]
